# Experiment: Solubility in water of the isolated solid form
# Format: physicochemical
# Settings: solid form obtained by the ethanol precipitation process
substance,measurement,value
"(4RS)-[4-carboxy-5,8,11-tris(carboxymethyl)-1-phenyl-2-oxa-5,8,11-triazatridecan-13-oato(5-)] calciate(3-) trisodium [Ca-BOPTA trisodium salt]",solubility of the solid form,soluble in water
